In series [1] the test system is influenza A virus (strain A/PR/8/34). In words: microbe, parasite or virus in culture. The format is cell-based. The settings on record: Influenza A virus, PR/8, MDCK, 24 h.
In series [2] the target is influenza virus vRNPs reconstituted in HEK293T cells (Influenza A virus, UniProt P03433). Kind of series: vRNP reconstitution assay in HEK293T cells. The series is classed as cell-based.
Series [3] is described as follows: MTS cell viability assay in untransfected HEK293T cells. The settings on record: human, vRNP reconstitution assay Cytotoxicity CC50, untransfected HEK293T cells.
Series [4] is described as follows: MTS cell viability assay in uninfected MDCK cells. The settings on record: dog. On the technique in general: Tetrazolium dyes change colour on reduction, which living cells bring about.

This is an account of results in PMC4980666, “N-acylhydrazone inhibitors of influenza virus PA endonuclease with versatile metal binding modes” (Scientific Reports, 2016).

As usually defined, the EC90 is the point of the concentration-response curve where the effect stands at 90%. In general, EC99 refers to the concentration needed for an effect of 99%. For orientation: EC50 means the concentration at which the effect is half-maximal. Usually CC50 stands for the concentration at which the toxic effect on the cells reaches its halfway point. A low value points to greater toxicity to the cells. For the compound `NC(=O)c1ncn([C@@H]2O[C@H](CO)[C@@H](O)[C@H]2O)n1` [Ribavirin, reference compound], in series [1] (read-out: Virus yield assay Antiviral activity EC90), the EC90 is 8.5 µM. Besides, the EC99 in series [1] (read-out: Virus yield assay Antiviral activity EC99) is 13 µM. The same compound gave an EC50 in series [2] of 9.4 µM. In addition, the CC50 at 24 h in series [3] and in series [4] was more than 200 µM each time.
